The target in data set [1] is α-synuclein fibrils (Homo sapiens, UniProt P37840). Description: ThT competitive binding assay with α-synuclein fibrils.
Data set [2] can be described thus: Ex vivo biodistribution in Sprague-Dawley rats.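 As to all read-outs here: four rats in each time-point group.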 Conditions: for brain uptake: male SD rats (n=4).
Experimental: Group of rats (n=4) were used for each time point. […] The whole brain was quickly removed and dissected into segments consisting of brain stem, thalamus, striatum, hippocampus, cortex, and cerebellum. The remainder of the brain was also collected to determine total brain uptake. […] Tissues were weighed, and the % I.D./g for each tissue was calculated.

Each structure is given as a SMILES string.

With `COc1ccc2c(c1)Sc1cc(C(F)(F)F)ccc1N2` [TZ5B-71, 3-methoxy-7-(trifluoromethyl)-10H-phenothiazine], in data set [1], the 50% inhibitory concentration (IC50) (commonly the concentration needed to halve the response being measured) is 742.7 ± 1.1 nM and the inhibitory constant (Ki) (commonly a dissociation constant, usually derived from enzyme kinetics or from competition with a known ligand) turned out to be 178 nM.
Consider `COc1ccc2c(c1)Sc1cnccc1N2` [TZ5B-79-1-1, 8-methoxy-5H-benzo[b]pyrido[4,3-e][1,4]thiazine], for which, in data set [1], the IC50 came out at 2231 ± 1.2 nM and the Ki was found to be 536 nM.
In the same order, the values of `COc1ccc2c(c1)Sc1cccnc1N2` [TZ5B-95-1, 7-methoxy-10H-benzo[b]pyrido[2,3-e][1,4]thiazine] are 6624 ± 1.4 nM and 1590 nM.
On the same counts, the results for `COc1cccc2c1N(C(C)=O)c1ccc(C(F)(F)F)cc1S2` [TZ5B-145-2, 1-(1-methoxy-7-(trifluoromethyl)-10H-phenothiazin-10-yl)ethanone] are 1048 ± 1.9 nM and 252 nM.
In the same order, the values of `COc1ccc2c(c1)Nc1ccc(C(F)(F)F)cc1S2` [TZ5B-159-1, 2-methoxy-7-(trifluoromethyl)-10H-phenothiazine] are 1082 ± 2.4 nM and 260 nM.
As for `O=[N+]([O-])c1ccc2c(c1)Sc1cc(OCC[18F])ccc1N2` [[^18F]SIL26], the Biodistribution worked out at 0.553 ± 0.047 I.D. %/gram in data set [2] (blood, 5 min, male Sprague-Dawley rats); 0.589 ± 0.016 I.D. %/gram in data set [2] (blood, 30 min, male Sprague-Dawley rats); 0.606 ± 0.035 I.D. %/gram in data set [2] (blood, 60 min, male Sprague-Dawley rats); 0.585 ± 0.046 I.D. %/gram in data set [2] (blood, 120 min, male Sprague-Dawley rats); 0.340 ± 0.027 I.D. %/gram in data set [2] (bone, 5 min, male Sprague-Dawley rats); 0.309 ± 0.020 I.D. %/gram in data set [2] (bone, 30 min, male Sprague-Dawley rats). In addition, the Biodistribution in data set [2] (bone, 60 min, male Sprague-Dawley rats) was found to be 0.407 ± 0.043 I.D. %/gram; in data set [2] (bone, 120 min, male Sprague-Dawley rats) it was 0.644±0.071 I.D. %/gram; in data set [2] (fat, 5 min, male Sprague-Dawley rats), 0.255 ± 0.037 I.D. %/gram; in data set [2] (fat, 30 min, male Sprague-Dawley rats) it was 0.425 ± 0.023 I.D. %/gram; in data set [2] (fat, 60 min, male Sprague-Dawley rats), 0.371 ± 0.067 I.D. %/gram; in data set [2] (fat, 120 min, male Sprague-Dawley rats) it was 0.293 ± 0.048 I.D. %/gram. Further, the Biodistribution is 0.757 ± 0.033 I.D. %/gram in data set [2] (heart, 5 min, male Sprague-Dawley rats); 0.505 ± 0.015 I.D. %/gram in data set [2] (heart, 30 min, male Sprague-Dawley rats); 0.466 ± 0.040 I.D. %/gram in data set [2] (heart, 60 min, male Sprague-Dawley rats); 0.410 ± 0.030 I.D. %/gram in data set [2] (heart, 120 min, male Sprague-Dawley rats); 1.070 ± 0.058 I.D. %/gram in data set [2] (kidney, 5 min, male Sprague-Dawley rats); 0.988 ± 0.090 I.D. %/gram in data set [2] (kidney, 30 min, male Sprague-Dawley rats). Further, the Biodistribution in data set [2] (kidney, 60 min, male Sprague-Dawley rats) is on record as 0.678 ± 0.032 I.D. %/gram; in data set [2] (kidney, 120 min, male Sprague-Dawley rats), 0.659 ± 0.027 I.D. %/gram; in data set [2] (liver, 5 min, male Sprague-Dawley rats), 1.626±0.221 I.D. %/gram; in data set [2] (liver, 30 min, male Sprague-Dawley rats), 0.847 ± 0.027 I.D. %/gram; in data set [2] (liver, 60 min, male Sprague-Dawley rats), 0.561 ± 0.028 I.D. %/gram; in data set [2] (liver, 120 min, male Sprague-Dawley rats), 0.467 ± 0.023 I.D. %/gram. Further, the Biodistribution is given as 0.833 ± 0.053 I.D. %/gram in data set [2] (lung, 5 min, male Sprague-Dawley rats); 0.561 ± 0.021 I.D. %/gram in data set [2] (lung, 30 min, male Sprague-Dawley rats); 0.491 ± 0.030 I.D. %/gram in data set [2] (lung, 60 min, male Sprague-Dawley rats); 0.436 ± 0.018 I.D. %/gram in data set [2] (lung, 120 min, male Sprague-Dawley rats); 0.430 ± 0.031 I.D. %/gram in data set [2] (muscle, 5 min, male Sprague-Dawley rats); 0.451 ± 0.018 I.D. %/gram in data set [2] (muscle, 30 min, male Sprague-Dawley rats). In addition, the Biodistribution in data set [2] (muscle, 60 min, male Sprague-Dawley rats) is on record as 0.376 ± 0.019 I.D. %/gram; in data set [2] (muscle, 120 min, male Sprague-Dawley rats) it was 0.315 ± 0.015 I.D. %/gram; in data set [2] (pancreas, 5 min, male Sprague-Dawley rats) it was 1.004 ± 0.147 I.D. %/gram; in data set [2] (pancreas, 30 min, male Sprague-Dawley rats) it was 0.546 ± 0.068 I.D. %/gram; in data set [2] (pancreas, 60 min, male Sprague-Dawley rats), 0.409 ± 0.029 I.D. %/gram; in data set [2] (pancreas, 120 min, male Sprague-Dawley rats), 0.330 ± 0.021 I.D. %/gram. In addition, the Biodistribution in data set [2] (spleen, 5 min, male Sprague-Dawley rats) stood at 0.672 ± 0.064 I.D. %/gram; in data set [2] (spleen, 30 min, male Sprague-Dawley rats) it was 0.509 ± 0.022 I.D. %/gram; in data set [2] (spleen, 60 min, male Sprague-Dawley rats), 0.446 ± 0.038 I.D. %/gram; in data set [2] (spleen, 120 min, male Sprague-Dawley rats), 0.398 ± 0.019 I.D. %/gram. Besides, the defluorination result in data set [2] (bone uptake from 5 to 60 min) is listed as “no defluorination was observed”. The brain uptake was 0.758±0.013 % I.D./g in data set [2] (5 min post i.v. injection), 0.465±0.018 % I.D./g in data set [2] (30 min post i.v. injection), 0.410±0.030 % I.D./g in data set [2] (60 min post i.v. injection) and 0.359±0.016 % I.D./g in data set [2] (120 min post i.v. injection). For the same compound, the “ability to cross the blood-brain-barrier (BBB)” value in data set [2] (male Sprague-Dawley rats, i.v.) is “able to cross BBB”.

The values are drawn from patent publication US20130315825A1, “TRICYCLIC HETEROAROMATIC COMPOUNDS AS ALPHA-SYNUCLEIN LIGANDS” (Washington University, priority 2012, published 2013).
